# Laboratory results published in ChEMBL document CHEMBL1201862, “PubChem BioAssay data set” (2004).
#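 Step 1: Grow cells in 96-well plates. Step 2: Expose to compound for 48 hours at 5 concentrations. Step 3: Interpolate endpoints linearly; if unreached, use highest concentration. GI50 is the concentration that inhibits growth by half.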 Activity calls are given as the source filed them. No stated cut-off is given here; in the data, active = GI50 up to about 1.1 µM and inactive = higher.
# Experiments:
# Assay in all cases: inhibition of tumour cell growth, NCI panel, 48 h
# SF-268 = test system: SF-268
# UO-31 = test system: UO-31
# SK-MEL-5 = test system: SK-MEL-5
# HCC 2998 = test system: HCC 2998
# T47D = test system: T47D
# NCI-H23 = test system: NCI-H23
# MCF7 = test system: MCF7
# NCI-H460 = test system: NCI-H460
# DU-145 = test system: DU-145
# UACC-62 = test system: UACC-62
# KM12 = test system: KM12
# OVCAR-3 = test system: OVCAR-3
# NCI-H226 = test system: NCI-H226
# OVCAR-5 = test system: OVCAR-5
# K562 = test system: K562
# MDA-MB-231 = test system: MDA-MB-231
# SK-MEL-28 = test system: SK-MEL-28
# Hs-578T = test system: Hs-578T
# CAKI-1 = test system: CAKI-1
# M14 = test system: M14
# OVCAR-8 = test system: OVCAR-8
# HT-29 = test system: HT-29
# SNB-75 = test system: SNB-75
# A498 = test system: A498
# CCRF-CEM = test system: CCRF-CEM
# Malme-3M = test system: Malme-3M
# NCI-H522 = test system: NCI-H522
# HCT-116 = test system: HCT-116
# BT-549 = test system: BT-549
# ACHN = test system: ACHN
# SR = test system: SR
# MDA-MB-435 = test system: MDA-MB-435
# RXF 393 = test system: RXF 393
# SF-539 = test system: SF-539
# HL-60 = test system: HL-60
# COLO 205 = test system: COLO 205
# TK-10 = test system: TK-10
# NCI/ADR-RES = test system: NCI/ADR-RES
# U-251 = test system: U-251
# IGROV-1 = test system: IGROV-1
# OVCAR-4 = test system: OVCAR-4
# SN12C = test system: SN12C
# SK-MEL-2 = test system: SK-MEL-2
# LOX IMVI = test system: LOX IMVI
# 786-0 = test system: 786-0
# SF-295 = test system: SF-295
# PC-3 = test system: PC-3
# SK-OV-3 = test system: SK-OV-3
# MDA-N = test system: MDA-N
# HOP-92 = test system: HOP-92
# HCT-15 = test system: HCT-15
# SNB-19 = test system: SNB-19
# EKVX = test system: EKVX
# RPMI-8226 = test system: RPMI-8226
# A549 = test system: A549
# SW-620 = test system: SW-620
# HOP-62 = test system: HOP-62
# UACC-257 = test system: UACC-257
# MOLT-4 = test system: MOLT-4
smiles,measurement,setting,value
N/N=C(\c1nc2ccc([N+](=O)[O-])cc2nc1O)C(O)c1ccc(Cl)c(Cl)c1 (stereo not drawn),GI50,SF-268,> 100 µM (inactive)
same,GI50,UO-31,26.7 µM (inactive)
same,GI50,SK-MEL-5,61.8 µM (inactive)
same,GI50,HCC 2998,> 100 µM (inactive)
same,GI50,T47D,67.3 µM (inactive)
same,GI50,NCI-H23,> 100 µM (inactive)
same,GI50,MCF7,> 100 µM (inactive)
same,GI50,NCI-H460,82.4 µM (inactive)
same,GI50,DU-145,> 100 µM (inactive)
same,GI50,UACC-62,> 100 µM (inactive)
same,GI50,KM12,28.3 µM (inactive)
same,GI50,OVCAR-3,> 100 µM (inactive)
same,GI50,NCI-H226,> 100 µM (inactive)
same,GI50,OVCAR-5,> 100 µM (inactive)
same,GI50,K562,96.6 µM (inactive)
same,GI50,MDA-MB-231,> 100 µM (inactive)
same,GI50,SK-MEL-28,> 100 µM (inactive)
same,GI50,Hs-578T,> 100 µM (inactive)
same,GI50,CAKI-1,> 100 µM (inactive)
same,GI50,M14,> 100 µM (inactive)
same,GI50,OVCAR-8,> 100 µM (inactive)
same,GI50,HT-29,> 100 µM (inactive)
same,GI50,SNB-75,> 100 µM (inactive)
same,GI50,A498,> 100 µM (inactive)
same,GI50,CCRF-CEM,15.8 µM (inactive)
same,GI50,Malme-3M,> 100 µM (inactive)
same,GI50,NCI-H522,13.9 µM (inactive)
same,GI50,HCT-116,71.3 µM (inactive)
same,GI50,BT-549,> 100 µM (inactive)
same,GI50,ACHN,54.1 µM (inactive)
same,GI50,SR,61.5 µM (inactive)
same,GI50,MDA-MB-435,71.6 µM (inactive)
same,GI50,RXF 393,> 100 µM (inactive)
same,GI50,SF-539,> 100 µM (inactive)
same,GI50,HL-60,47.4 µM (inactive)
same,GI50,COLO 205,> 100 µM (inactive)
same,GI50,TK-10,> 100 µM (inactive)
same,GI50,NCI/ADR-RES,> 100 µM (inactive)
same,GI50,U-251,> 100 µM (inactive)
same,GI50,IGROV-1,> 100 µM (inactive)
same,GI50,OVCAR-4,> 100 µM (inactive)
same,GI50,SN12C,> 100 µM (inactive)
same,GI50,SK-MEL-2,> 100 µM (inactive)
same,GI50,LOX IMVI,33.4 µM (inactive)
same,GI50,786-0,> 100 µM (inactive)
same,GI50,SF-295,> 100 µM (inactive)
same,GI50,PC-3,> 100 µM (inactive)
same,GI50,SK-OV-3,88.1 µM (inactive)
same,GI50,MDA-N,> 100 µM (inactive)
same,GI50,HOP-92,> 100 µM (inactive)
same,GI50,HCT-15,> 100 µM
same,GI50,SNB-19,> 100 µM (inactive)
same,GI50,EKVX,> 100 µM (inactive)
same,GI50,RPMI-8226,22.8 µM (inactive)
same,GI50,A549,> 100 µM (inactive)
same,GI50,SW-620,56.9 µM (inactive)
same,GI50,HOP-62,> 100 µM (inactive)
same,GI50,UACC-257,> 100 µM (inactive)
same,GI50,MOLT-4,22 µM (inactive)
CCOC(=O)C(NC(=O)CC)(Nc1ccc(S(=O)(=O)Nc2nc(C)cc(C)n2)cc1)C(F)(F)F (stereo not drawn),GI50,SF-268,> 100 µM (inactive)
same,GI50,UO-31,> 100 µM (inactive)
same,GI50,SK-MEL-5,> 100 µM (inactive)
same,GI50,HCC 2998,> 100 µM (inactive)
same,GI50,T47D,> 100 µM (inactive)
same,GI50,NCI-H23,> 100 µM (inactive)
same,GI50,MCF7,36.6 µM (inactive)
same,GI50,NCI-H460,> 100 µM (inactive)
same,GI50,DU-145,> 100 µM (inactive)
same,GI50,UACC-62,> 100 µM (inactive)
same,GI50,KM12,> 100 µM (inactive)
same,GI50,OVCAR-3,> 100 µM (inactive)
same,GI50,NCI-H226,> 100 µM (inactive)
same,GI50,OVCAR-5,> 100 µM (inactive)
same,GI50,K562,> 100 µM (inactive)
same,GI50,MDA-MB-231,> 100 µM (inactive)
same,GI50,SK-MEL-28,> 100 µM (inactive)
same,GI50,Hs-578T,> 100 µM (inactive)
same,GI50,CAKI-1,> 100 µM (inactive)
same,GI50,M14,> 100 µM (inactive)
same,GI50,OVCAR-8,> 100 µM (inactive)
same,GI50,HT-29,> 100 µM (inactive)
same,GI50,SNB-75,> 100 µM (inactive)
same,GI50,A498,> 100 µM (inactive)
same,GI50,CCRF-CEM,> 100 µM (inactive)
same,GI50,Malme-3M,> 100 µM (inactive)
same,GI50,NCI-H522,31.6 µM (inactive)
same,GI50,HCT-116,> 100 µM (inactive)
same,GI50,BT-549,> 100 µM (inactive)
same,GI50,ACHN,> 100 µM (inactive)
same,GI50,SR,> 100 µM (inactive)
same,GI50,MDA-MB-435,> 100 µM (inactive)
same,GI50,RXF 393,> 100 µM (inactive)
same,GI50,SF-539,> 100 µM (inactive)
same,GI50,HL-60,> 100 µM (inactive)
same,GI50,COLO 205,> 100 µM (inactive)
same,GI50,TK-10,> 100 µM (inactive)
same,GI50,NCI/ADR-RES,> 100 µM (inactive)
same,GI50,U-251,> 100 µM (inactive)
same,GI50,IGROV-1,> 100 µM (inactive)
same,GI50,OVCAR-4,> 100 µM (inactive)
same,GI50,SN12C,> 100 µM (inactive)
same,GI50,SK-MEL-2,> 100 µM (inactive)
same,GI50,LOX IMVI,> 100 µM (inactive)
same,GI50,786-0,> 100 µM (inactive)
same,GI50,SF-295,> 100 µM (inactive)
same,GI50,PC-3,> 100 µM (inactive)
same,GI50,SK-OV-3,> 100 µM (inactive)
same,GI50,MDA-N,> 100 µM (inactive)
same,GI50,HOP-92,> 100 µM (inactive)
same,GI50,HCT-15,> 100 µM
same,GI50,SNB-19,> 100 µM (inactive)
same,GI50,EKVX,> 100 µM (inactive)
same,GI50,RPMI-8226,> 100 µM (inactive)
same,GI50,A549,> 100 µM (inactive)
same,GI50,SW-620,> 100 µM (inactive)
same,GI50,HOP-62,> 100 µM (inactive)
same,GI50,UACC-257,> 100 µM (inactive)
same,GI50,MOLT-4,> 100 µM (inactive)
